In patent US20240018161A1, “MODULATORS OF CYSTIC FIBROSIS TRANSMEMBRANE CONDUCTANCE REGULATOR” (VERTEX PHARMACEUTICALS INCORPORATED, priority 2020, published 2024):
Read-outs that look alike come from different tables or passages of the source. Values belong to the compound of their own block, whether it stands above or below them.

How the values were obtained:
[1] = target: CFTR-mediated chloride transport in human intestinal epithelial enteroid cells (Homo sapiens, UniProt P13569); assay: Membrane potential dye, Enteroid Assay A; type: cell-based; settings: for EC50: read-out: Ent. A EC50
CFTR-mediated chloride transport in human intestinal epithelial enteroid cells, sequence (P13569 with tags, fused parts or gaps DEL508-508): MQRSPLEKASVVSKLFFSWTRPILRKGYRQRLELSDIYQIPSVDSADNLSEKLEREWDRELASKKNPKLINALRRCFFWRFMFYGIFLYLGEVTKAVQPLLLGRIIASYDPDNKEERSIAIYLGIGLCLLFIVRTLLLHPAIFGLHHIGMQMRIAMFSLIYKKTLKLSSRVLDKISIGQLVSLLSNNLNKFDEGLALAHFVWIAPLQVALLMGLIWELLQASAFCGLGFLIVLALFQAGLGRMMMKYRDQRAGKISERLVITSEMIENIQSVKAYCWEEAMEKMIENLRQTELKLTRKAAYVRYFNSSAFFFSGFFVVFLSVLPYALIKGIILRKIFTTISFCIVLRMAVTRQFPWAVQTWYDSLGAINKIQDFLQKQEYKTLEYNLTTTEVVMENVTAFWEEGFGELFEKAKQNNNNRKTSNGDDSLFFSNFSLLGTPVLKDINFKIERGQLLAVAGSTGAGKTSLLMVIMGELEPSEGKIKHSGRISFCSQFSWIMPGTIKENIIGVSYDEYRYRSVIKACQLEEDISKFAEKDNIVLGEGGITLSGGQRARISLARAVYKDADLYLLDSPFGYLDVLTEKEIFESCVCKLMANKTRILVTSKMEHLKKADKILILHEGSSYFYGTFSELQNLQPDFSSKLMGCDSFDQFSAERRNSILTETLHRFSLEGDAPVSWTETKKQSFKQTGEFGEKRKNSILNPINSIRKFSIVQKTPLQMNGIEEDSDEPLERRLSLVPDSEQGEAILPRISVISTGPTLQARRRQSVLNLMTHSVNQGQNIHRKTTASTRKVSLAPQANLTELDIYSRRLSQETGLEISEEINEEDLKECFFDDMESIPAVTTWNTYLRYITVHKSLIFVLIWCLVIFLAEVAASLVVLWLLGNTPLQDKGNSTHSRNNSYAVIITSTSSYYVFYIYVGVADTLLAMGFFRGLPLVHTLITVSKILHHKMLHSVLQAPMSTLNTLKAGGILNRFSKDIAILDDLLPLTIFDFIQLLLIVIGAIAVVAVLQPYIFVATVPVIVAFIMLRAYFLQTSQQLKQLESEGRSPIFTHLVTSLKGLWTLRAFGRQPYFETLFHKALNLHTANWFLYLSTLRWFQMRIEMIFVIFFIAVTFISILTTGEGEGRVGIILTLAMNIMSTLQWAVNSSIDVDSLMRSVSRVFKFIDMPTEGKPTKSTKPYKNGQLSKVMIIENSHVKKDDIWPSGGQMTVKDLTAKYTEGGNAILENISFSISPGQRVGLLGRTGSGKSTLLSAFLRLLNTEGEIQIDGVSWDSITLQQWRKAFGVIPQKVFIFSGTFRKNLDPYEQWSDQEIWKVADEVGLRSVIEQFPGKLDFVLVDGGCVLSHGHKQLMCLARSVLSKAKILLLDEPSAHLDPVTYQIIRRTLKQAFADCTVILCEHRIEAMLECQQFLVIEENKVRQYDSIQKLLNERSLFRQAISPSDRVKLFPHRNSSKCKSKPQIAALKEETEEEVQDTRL
Method in brief: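 Membrane potential dye (20 μM methyl oxonol, with 30 μM CaCCinh-A01 and 30 μM Chicago Sky Blue) loaded 25 min at room temperature into ROCK-inhibitor-seeded human enteroid cells. Chloride-free stimulation buffer triggered transport, followed by 15 min fluorescence. % Activity relative to 3 μM/3 μM/300 nM triple-combination control.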

[2] = enteroid cells incubated with test compound 18-24 hours, acute 10 μM forskolin and 300 nM N-[2,4-bis(1,1-dimethylethyl)-5-hydroxyphenyl]-1,4-dihydro-4-oxoquinoline-3-carboxamide
[3] = percentage of chloride transport of triple combination control (3 μM N-[(6-amino-2-pyridyl)sulfonyl]-6-(3-fluoro-5-isobutoxy-phenyl)-2-[(4S)-2,2,4-trimethylpyrrolidin-1-yl]pyridine-3-carboxamide based)
[4] = from Cc1cccc(C)c1-c1cc(Cl)nc(NS(=O)(=O)c2cccc(C(=O)N3CCN(C(C)C(C)(C)C)C[C@@H](O)C3)c2)n1, snar bond, 13-membered ring, NaH, DMF, 31.4 mM, 0.0 °C, 7.0 h
[5] = from Cc1cccc(C)c1-c1cc(OCC2c3ccc(C(C)(C)C)cc3CNC2C)nc(NS(=O)(=O)c2cccc(C(=O)O)c2)n1, amide bond, 14-membered ring, HATU/TEA, DMF, 44.8 mM, 50.0 °C, 0.5 h, 2 steps

Compound: Cc1cccc(C)c1-c1cc2nc(n1)NS(=O)(=O)c1cccc(c1)C(=O)N1CC(CC(c3ccccc3)C1)O2 (single isomer, unassigned; diastereomer 1)
ring closure, yield after HPLC (from 3-[[4-(2,6-dimethylphenyl)-6-[(5-phenyl-3-piperidyl)oxy]pyrimidin-2-yl]sulfamoyl]benzoic acid (hydrochloride salt), diastereomer 1, amide bond, 13-membered ring, HATU/DIEA, DMF, 37.8 mM, 25.0 °C, 3 steps): 1%

Compound: Cc1cccc(C)c1-c1cc2nc(n1)NS(=O)(=O)c1cccc(c1)C(=O)N1CC(O2)C2CCCN(C)C2C1 (single isomer, unassigned; diastereomer 1)
ring closure, yield after HPLC (from Cc1cccc(C)c1-c1cc(OC2CNCC3C2CCCN3C)nc(NS(=O)(=O)c2cccc(C(=O)O)c2)n1, amide bond, 13-membered ring, HATU/DIEA, DMF, 20.5 mM, 25.0 °C, 1.0 h): 54%

Compound: Cc1cccc(C)c1-c1cc2nc(n1)NS(=O)(=O)c1cccc(c1)C(=O)N1CCN(C(C)C(C)(C)C)C[C@H](C1)O2 (single isomer, unassigned; diastereomer 1)
ring closure, yield after HPLC [4]: 36%

Compound: Cc1cccc(C)c1-c1cc2nc(n1)NS(=O)(=O)c1cccc(c1)C(=O)N1CC(CC(c3ccccc3)C1)O2 (single isomer, unassigned; diastereomer 2)
ring closure, yield after HPLC (from 3-[[4-(2,6-dimethylphenyl)-6-[(5-phenyl-3-piperidyl)oxy]pyrimidin-2-yl]sulfamoyl]benzoic acid (hydrochloride salt), diastereomer 2, amide bond, 13-membered ring, HATU/DIEA, DMF, 61.9 mM, 25.0 °C, 3 steps): 31%

Compound: Cc1cccc(C)c1-c1cc2nc(n1)NS(=O)(=O)c1cccc(c1)C(=O)N1CCN(C(=O)OCc3ccccc3)CC(O2)[C@H]1C (single isomer, unassigned; diastereomer 2)
ring closure, yield after HPLC (from Cc1cccc(C)c1-c1cc(Cl)nc(NS(=O)(=O)c2cccc(C(=O)N3CCN(C(=O)OCc4ccccc4)CC(O)[C@H]3C)c2)n1, snar bond, 13-membered ring, NaH, DMF, 30.1 mM, 0.0 °C, 1.5 h): 7%

Compound: Cc1cccc(C)c1-c1cc2nc(n1)NS(=O)(=O)c1cccc(c1)C(=O)N1CCN(C(C)C(C)(C)C)C[C@H](C1)O2 (single isomer, unassigned; diastereomer 2)
ring closure, yield after HPLC [4]: 33%

Compound: Cc1cccc(C)c1-c1cc2nc(n1)NS(=O)(=O)c1cccc(c1)C(=O)N1Cc3cc(C(C)(C)C)ccc3C(CO2)C1C (single isomer, unassigned; enantiomer 1)
ring closure, yield after HPLC [5]: 2%

Compound: Cc1cccc(C)c1-c1cc2nc(n1)NS(=O)(=O)c1cccc(c1)C(=O)N1Cc3cc(C(C)(C)C)ccc3C(CO2)C1C (single isomer, unassigned; enantiomer 2)
ring closure, yield after HPLC [5]: 1%

Compound: Cc1cccc(C)c1-c1cc2nc(n1)NS(=O)(=O)c1cccc(n1)C(=O)N1CCN(CCC(C)(C)C)CC(C1)O2 (stereo not shown) [Compound 70, 18-(3,3-Dimethylbutyl)-12-(2,6-dimethylphenyl)-15-oxa-8λ^6-thia-1,9,11,18,22,23-hexaazatetracyclo[14.4.1.13,7.110,14]tricosa-3,5,7(23),10,12,14(22)-hexaene-2,8,8-trione]
ring closure, yield after HPLC (from Cc1cccc(C)c1-c1cc(OC2CNCCN(CCC(C)(C)C)C2)nc(NS(=O)(=O)c2cccc(C(=O)O)n2)n1, amide bond, 13-membered ring, HATU/DIEA, DMF, 78.0 mM, 25.0 °C, 0.5 h, 2 steps): 1%
Ent. A Max Activity (%) ([1]; Enteroid Assay A): + (+ is <30%)

Compound: Cc1cccc(C)c1-c1cc2nc(n1)NS(=O)(=O)c1cccc(c1)NC(=O)CN1CCCC(C1)O2 (stereo not shown) [Compound 160, 5-(2,6-Dimethylphenyl)-2-oxa-9λ^6-thia-6,8,15,18,24-pentaazatetracyclo[16.3.1.13,7.110,14]tetracosa-3(24),4,6,10,12,14(23)-hexaene-9,9,16-trione]
ring closure, yield after HPLC (from Cc1cccc(C)c1-c1cc(OC2CCCN(CC(=O)Nc3cccc(S(N)(=O)=O)c3)C2)nc(Cl)n1, cn_pd bond, 15-membered ring, Pd(OAc)2/Xantphos/Cs2CO3, dioxane, 20.1 mM, 100.0 °C, 16.0 h): 17%
EC50 [1, 2]: 1000 to 3000 nM
Ent. A Max Activity (%) [1, 3]: + (+ is <300%)

Compound: Cc1cccc(C)c1-c1cc2nc(n1)NS(=O)(=O)c1cccc(c1)C(=O)N1CCN(CCC3(C(F)(F)F)CC3)CC1CO2 (stereo not shown) [Compound 170, 13-(2,6-Dimethylphenyl)-6-{2-[1-(trifluoromethyl)cyclopropyl]ethyl}-10-oxa-17λ^6-thia-3,6,14,16,23-pentaazatetracyclo[16.3.1.111,15.03,8]tricosa-1(22),11,13,15(23),18,20-hexaene-2,17,17-trione]
ring closure, yield after HPLC (from Cc1cccc(C)c1-c1cc(OCC2CN(CCC3(C(F)(F)F)CC3)CCN2)nc(NS(=O)(=O)c2cccc(C(=O)O)c2)n1, amide bond, 13-membered ring, HATU/DIEA, DMF, 18.7 mM, 25.0 °C, 1.0 h, 3 steps): 14%
EC50 [1, 2]: < 1000 nM
Ent. A Max Activity (%) [1, 3]: ++ (++ is 30-60%)

Compound: Cc1cccc(C)c1-c1cc2nc(n1)NS(=O)(=O)c1cccc(c1)C(=O)N1CC[C@H](C1)O2 [Compound 214, (3R)-17-(2,6-Dimethylphenyl)-2-oxa-13λ^6-thia-6,14,16,19-tetraazatetracyclo[13.3.1.13,6.18,12]henicosa-1(19),8(20),9,11,15,17-hexaene-7,13,13-trione]
ring closure, yield after HPLC (from Cc1cccc(C)c1-c1cc(O[C@@H]2CCNC2)nc(NS(=O)(=O)c2cccc(C(=O)O)c2)n1, amide bond, 13-membered ring, HATU/TEA, DMF, 56.8 mM, 25.0 °C, 1.0 h): 17%

Second part, led by results:

EC50 [1, 2]: 3000 to 30000 nM
Compound: Cc1cccc(C)c1-c1cc2nc(n1)NS(=O)(=O)c1cccc(c1)C(=O)N1Cc3cccnc3C(C1)O2 (single isomer, unassigned) [Compound 195, 12-(2,6-dimethylphenyl)-15-oxa-8λ^6-thia-1,9,11,18,25-pentaazapentacyclo[14.7.1.13,7.110,14.017,22]hexacosa-3,5,7(26),10(25),11,13,17,19,21-nonaene-2,8,8-trione]
ring closure, yield after HPLC (from Cc1cccc(C)c1-c1cc(OC2CNCc3cccnc32)nc(NS(=O)(=O)c2cccc(C(=O)O)c2)n1, amide bond, 13-membered ring, HATU/DIEA, DMF, 8.0 mM, 1.0 h): 76%
Ent. A Max Activity (%) [1, 3]: ++ (++ is 30-60%)

Ent. A Max Activity (%) ([1]; Enteroid Assay A): +++ (+++ is >600%)
EC50 ([1]; Enteroid Assay A): < 1000 nM
Compound: Cc1cccc(C)c1-c1cc2nc(n1)NS(=O)(=O)c1cccc(c1)C(=O)N1CCN(C(C)(C)C)C[C@H](C1)O2 [Compound 71, (16R)-18-tert-Butyl-12-(2,6-dimethylphenyl)-15-oxa-8λ^6-thia-1,9,11,18,22-pentaazatetracyclo[14.4.1.13,7.110,14]tricosa-3(23),4,6,10(22),11,13-hexaene-2,8,8-trione]
ring closure, yield after HPLC (from Cc1cccc(C)c1-c1cc(Cl)nc(NS(=O)(=O)c2cccc(C(=O)N3CCN(C(C)(C)C)C[C@@H](O)C3)c2)n1, snar bond, 13-membered ring, NaH, DMF, 33.9 mM, 25.0 °C, 4.17 h): 37%

Ent. A Max Activity (%) ([1]; Enteroid Assay A): +++ (+++ is >600%)
EC50 ([1]; Enteroid Assay A): < 1000 nM
Compound: Cc1cccc(C)c1-c1cc2nc(n1)NS(=O)(=O)c1cccc(c1)C(=O)N1CC(CN(Cc3ccccc3)[C@@H](CC(C)C)C1)O2 (stereo partly drawn) [Compound 107, (19S)-18-Benzyl-12-(2,6-dimethylphenyl)-19-(2-methylpropyl)-15-oxa-8λ^6-thia-1,9,11,18,22-pentaazatetracyclo[14.4.1.13,7.110,14]tricosa-3(23),4,6,10(22),11,13-hexaene-2,8,8-trione]
ring closure, yield after HPLC (from Cc1cccc(C)c1-c1cc(Cl)nc(NS(=O)(=O)c2cccc(C(=O)N3CC(O)CN(Cc4ccccc4)[C@@H](CC(C)C)C3)c2)n1, snar bond, 13-membered ring, NaH, DMF, 29.1 mM, 0.0 °C, 4.0 h): 3%

EC50 [1, 2]: 1000 to 3000 nM
Compound: Cc1cccc(C)c1-c1cc2nc(n1)NS(=O)(=O)c1cccc(c1)C(=O)N1CCN(C(=O)OC(C)(C)C)CC1C(C)O2 (stereo not shown) [Compound 173, tert-Butyl 13-(2,6-dimethylphenyl)-9-methyl-2,17,17-trioxo-10-oxa-17λ^6-thia-3,6,14,16,23-pentaazatetracyclo[16.3.1.111,15.03,8]tricosa-1(22),11,13,15(23),18,20-hexaene-6-carboxylate]
ring closure, yield after HPLC (from Cc1cccc(C)c1-c1cc(OC(C)C2CN(C(=O)OC(C)(C)C)CCN2)nc(NS(=O)(=O)c2cccc(C(=O)O)c2)n1, amide bond, 13-membered ring, HATU/DIEA, DMF, 10.9 mM, 25.0 °C, 0.5 h): 19%
Ent. A Max Activity (%) [1, 3]: ++ (++ is 30-60%)

Ent. A Max Activity (%) ([1]; Enteroid Assay A): ++ (++ is 30-60%)
EC50 ([1]; Enteroid Assay A): < 1000 nM
Compound: Cc1cccc(C)c1-c1cc2nc(n1)NS(=O)(=O)c1cccc(c1)C(=O)N1CCN(C(=O)OC(C)(C)C)CC1C(Cc1ccccc1)O2 (stereo not shown) [Compound 175, tert-butyl 9-benzyl-13-(2,6-dimethylphenyl)-2,17,17-trioxo-10-oxa-17λ^6-thia-3,6,14,16,23-pentaazatetracyclo[16.3.1.111,15.03,8]tricosa-1(22),11,13,15(23),18,20-hexaene-6-carboxylate]
ring closure, yield after HPLC (from Cc1cccc(C)c1-c1cc(OC(Cc2ccccc2)C2CN(C(=O)OC(C)(C)C)CCN2)nc(NS(=O)(=O)c2cccc(C(=O)O)c2)n1, amide bond, 13-membered ring, HATU/DIEA, DMF, 10.8 mM, 25.0 °C, 0.083 h): 55%

EC50 ([1]; Enteroid Assay A): < 1000 nM
Compound: Cc1cccc(C)c1-c1cc2nc(n1)NS(=O)(=O)c1cccc(c1)C(=O)N1Cc3cc(C(C)(C)C)ccc3[C@@H](O2)[C@H]1CC(C)(C)C [Compound 189, (16R,24R)-20-tert-butyl-12-(2,6-dimethylphenyl)-24-(2,2-dimethylpropyl)-15-oxa-8λ^6-thia-1,9,11,25-tetraazapentacyclo[14.7.1.13,7.110,14.017,22]hexacosa-3(26),4,6,10(25),11,13,17,19,21-nonaene-2,8,8-trione]
ring closure, yield after HPLC (from Cc1cccc(C)c1-c1cc(O[C@@H]2c3ccc(C(C)(C)C)cc3CN[C@@H]2CC(C)(C)C)nc(NS(=O)(=O)c2cccc(C(=O)O)c2)n1, amide bond, 13-membered ring, HATU/NaOtBu, DMF/THF, 0.25 h, 2 steps): 0.35%
